From ChEMBL document CHEMBL4818999, “Pyrido[2, 3-d]pyrimidin-7(8H)-ones as new selective orally bioavailable Threonine Tyrosine Kinase (TTK) inhibitors” (Eur J Med Chem, 2021)

Key:
[1] = biological target: Interleukin-1 receptor-associated kinase 1 (Homo sapiens, UniProt P51617); conditions: dose 100.0 nM
Description: Inhibition of human recombinant IRAK1 (198 to end) using myelin ba as substrate at 100 nM direct filter-binding radiometric kinase activity assay relative to control

[2] = biological target: Phosphorylase b kinase gamma catalytic chain, liver/testis isoform (Homo sapiens) (UniProt P15735); conditions: dose 100.0 nM
Description: Inhibition of human recombinant PHKG2 using ZIPtide at 100 nM direct filter-binding radiometric kinase activity assay relative to control

HCT-116 [3] = assay: Induction of apoptosis in human HCT-116 cells assessed as […] cells at 1000 nM incubated for 48 hrs by annexin V and 7-AAD staining based flow cytometry analysis (reference value: 1.20 %); format: functional
[4] = biological target: T1, MAP/microtubule affinity-regulating kinase 3 (Homo sapiens, UniProt P27448); conditions: dose 100.0 nM
[5] = Clearance in Sprague-Dawley rat at 5 mg/kg, iv; format: ADME, organism-based; conditions: in vivo
COLO 205 = assay: Antiproliferative activity against human COLO-205 cells assessed as growth inhibition after 96 hrs by CCK8 assay; format: functional, cell-based; conditions: COLO 205, 96 h
HCT-116 [6] = assay: Induction of apoptosis in human HCT-116 cells assessed as late apoptotic cells at 333.3 nM incubated for 48 hrs by annexin V and 7-AAD staining based flow cytometry analysis (reference value: 8.59 %); format: functional
HCT-116 [7] = assay: Antitumor activity at human HCT-116 cells xenografted in CB17-SCID mouse assessed as tumor growth inhibition at 50 mg/kg, po administered daily, 2days on/ 4 days off and measured every 2 days for 16 days relative to control; format: functional; conditions: HCT-116, po, 384 h, time 16 day, read-out: TGI
HCT-116 [8] = assay: Induction of apoptosis in human HCT-116 cells assessed as late apoptotic cells at 1000 nM incubated for 48 hrs by annexin V and 7-AAD staining based flow cytometry analysis (reference value: 8.59 %); format: functional
[9] = Half life in Sprague-Dawley rat at 5 mg/kg, iv; format: ADME, organism-based; conditions: in vivo
[10] = biological target: STE20/SPS1-related proline-alanine-rich protein kinase (Homo sapiens) (UniProt Q9UEW8); conditions: dose 100.0 nM
Description: Inhibition of human STK39 at 100 nM by direct-filter Binding radiometric assay relative t

[11] = biological target: T2, Dual specificity protein kinase TTK (Homo sapiens, UniProt P33981); assay: Binding affinity to wild-type human partial length TTK (N505 to V798 residues) expressed in bacterial expression system by active site-directed competition binding based Kinomescan method
T2 sequence (P33981 whole entry): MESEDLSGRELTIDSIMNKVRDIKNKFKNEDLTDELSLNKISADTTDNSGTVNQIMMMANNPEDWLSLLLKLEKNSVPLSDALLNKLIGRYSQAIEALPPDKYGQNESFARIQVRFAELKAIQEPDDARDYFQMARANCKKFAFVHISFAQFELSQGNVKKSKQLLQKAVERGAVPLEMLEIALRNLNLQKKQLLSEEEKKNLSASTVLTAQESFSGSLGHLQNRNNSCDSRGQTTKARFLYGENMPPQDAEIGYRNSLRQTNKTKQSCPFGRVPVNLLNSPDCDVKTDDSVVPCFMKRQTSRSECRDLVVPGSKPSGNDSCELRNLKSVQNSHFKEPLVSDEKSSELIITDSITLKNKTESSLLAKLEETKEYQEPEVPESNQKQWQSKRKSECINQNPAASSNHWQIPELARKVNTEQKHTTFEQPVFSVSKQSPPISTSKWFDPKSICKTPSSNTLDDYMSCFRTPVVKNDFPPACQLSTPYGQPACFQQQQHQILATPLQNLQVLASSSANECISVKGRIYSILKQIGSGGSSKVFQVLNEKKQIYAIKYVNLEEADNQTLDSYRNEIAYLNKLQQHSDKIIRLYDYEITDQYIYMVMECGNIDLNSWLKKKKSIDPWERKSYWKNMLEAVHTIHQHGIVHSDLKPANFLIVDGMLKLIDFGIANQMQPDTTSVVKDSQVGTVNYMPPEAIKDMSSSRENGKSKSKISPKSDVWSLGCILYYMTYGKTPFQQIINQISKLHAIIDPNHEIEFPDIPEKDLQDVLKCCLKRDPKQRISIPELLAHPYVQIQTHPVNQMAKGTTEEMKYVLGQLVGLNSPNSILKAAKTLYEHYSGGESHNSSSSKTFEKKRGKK

HCT-116 [12] = assay: Induction of apoptosis in human HCT-116 cells assessed as viable cells at 1000 nM incubated for 48 hrs by annexin V and 7-AAD staining based flow cytometry analysis (reference value: 82.09 %); format: functional; conditions: read-out: Activity
[13] = biological target: T1, MAP/microtubule affinity-regulating kinase 3; assay: Binding affinity to wild-type human full length MARK3 (M1 to L729 residues) expressed in bacterial expression system by measuring active site-directed competition binding based Kinomescan method
[14] = biological target: Myotonin-protein kinase (Homo sapiens) (UniProt Q09013); conditions: dose 100.0 nM
Description: Inhibition of human recombinant DMPK (1 to 549) using Axltide at 100 nM direct filter-binding radiometric kinase activity assay relative to control

[15] = Toxicity in CB17-SCID mouse xenografted with human HCT-116 cells xenografted assessed as body weight loss at 50 mg/kg, po administered once daily relative to control; format: organism-based; conditions: in vivo
[16] = biological target: Death-associated protein kinase 1 (Homo sapiens) (UniProt P53355); conditions: dose 100.0 nM
[17] = biological target: Phosphatidylinositol 3-kinase C2 domain-containing subunit gamma (Homo sapiens) (UniProt O75747); conditions: dose 100.0 nM
Description: Inhibition of PIK3C2G (unknown origin) at 100 nM direct filter-binding radiometric kinase activity assay relative to control

HCT-116 [18] = assay: Induction of apoptosis in human HCT-116 cells assessed as early apoptotic cells at 111.1 nM incubated for 48 hrs by annexin V and 7-AAD staining based flow cytometry analysis (reference value: 8.12 %); format: functional
[19] = Half life in Sprague-Dawley rat at 25 mg/kg, po; format: ADME, organism-based; conditions: in vivo
HCT-116 [20] = assay: Induction of apoptosis in human HCT-116 cells assessed as viable cells at 333.3 nM incubated for 48 hrs by annexin V and 7-AAD staining based flow cytometry analysis (reference value: 82.09 %); format: functional; conditions: read-out: Activity
[21] = biological target: Casein kinase II subunit alpha (Homo sapiens) (UniProt P68400); conditions: dose 100.0 nM
[22] = biological target: Mitogen-activated protein kinase 10 (Homo sapiens) (UniProt P53779); conditions: dose 100.0 nM
Description: Inhibition of human full length JNK3 at 100 nM by direct-filter Binding radiometric assay relative to control

HCT-116 [23] = assay: Induction of apoptosis in human HCT-116 cells assessed as early apoptotic cells at 333.3 nM incubated for 48 hrs by annexin V and 7-AAD staining based flow cytometry analysis (reference value: 8.12 %); format: functional
HCT-116 [24] = assay: Induction of apoptosis in human HCT-116 cells assessed as late apoptotic cells at 333.3 nM incubated for 48 hrs by annexin V and 7-AAD staining based flow cytometry analysis (reference value: 1.20 %); format: functional
[25] = biological target: Serine/threonine-protein kinase 16 (Homo sapiens) (UniProt O75716); conditions: dose 100.0 nM
Description: Inhibition of human STK16 at 100 nM by direct-filter Binding radiometric assay relative to control

[26] = biological target: Mitogen-activated protein kinase 9 (Homo sapiens) (UniProt P45984); conditions: dose 100.0 nM
Description: Inhibition of human recombinant JNK2 using ATF2 at 100 nM direct filter-binding radiometric kinase activity assay relative to control

HCT-116 [27] = assay: Induction of apoptosis in human HCT-116 cells assessed as viable cells at 111.1 nM incubated for 48 hrs by annexin V and 7-AAD staining based flow cytometry analysis (reference value: 82.09 %); format: functional; conditions: read-out: Activity

Chain of Serine/threonine-protein kinase 16 (Homo sapiens) (O75716 whole entry): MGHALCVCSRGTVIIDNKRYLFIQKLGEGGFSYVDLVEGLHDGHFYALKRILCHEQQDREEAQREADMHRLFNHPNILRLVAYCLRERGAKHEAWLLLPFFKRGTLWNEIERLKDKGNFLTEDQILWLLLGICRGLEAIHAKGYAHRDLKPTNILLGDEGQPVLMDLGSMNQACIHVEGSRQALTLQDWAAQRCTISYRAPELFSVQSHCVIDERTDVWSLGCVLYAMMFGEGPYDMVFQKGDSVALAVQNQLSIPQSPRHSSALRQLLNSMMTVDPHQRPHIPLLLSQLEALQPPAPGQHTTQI
Chain of Mitogen-activated protein kinase 9 (Homo sapiens) (P45984 whole entry, looked up): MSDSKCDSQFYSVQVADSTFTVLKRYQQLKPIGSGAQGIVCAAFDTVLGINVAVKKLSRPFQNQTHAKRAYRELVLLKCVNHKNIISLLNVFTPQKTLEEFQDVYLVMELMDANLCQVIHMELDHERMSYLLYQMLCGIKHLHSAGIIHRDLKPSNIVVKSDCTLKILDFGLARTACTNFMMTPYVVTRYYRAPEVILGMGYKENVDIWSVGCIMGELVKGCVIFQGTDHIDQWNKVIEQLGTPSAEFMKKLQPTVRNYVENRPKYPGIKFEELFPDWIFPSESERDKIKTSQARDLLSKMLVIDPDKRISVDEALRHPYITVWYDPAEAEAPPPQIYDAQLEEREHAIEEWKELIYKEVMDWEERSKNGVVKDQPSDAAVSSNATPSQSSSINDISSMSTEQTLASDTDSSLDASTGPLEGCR
Chain of Myotonin-protein kinase (Homo sapiens) (Q09013 whole entry): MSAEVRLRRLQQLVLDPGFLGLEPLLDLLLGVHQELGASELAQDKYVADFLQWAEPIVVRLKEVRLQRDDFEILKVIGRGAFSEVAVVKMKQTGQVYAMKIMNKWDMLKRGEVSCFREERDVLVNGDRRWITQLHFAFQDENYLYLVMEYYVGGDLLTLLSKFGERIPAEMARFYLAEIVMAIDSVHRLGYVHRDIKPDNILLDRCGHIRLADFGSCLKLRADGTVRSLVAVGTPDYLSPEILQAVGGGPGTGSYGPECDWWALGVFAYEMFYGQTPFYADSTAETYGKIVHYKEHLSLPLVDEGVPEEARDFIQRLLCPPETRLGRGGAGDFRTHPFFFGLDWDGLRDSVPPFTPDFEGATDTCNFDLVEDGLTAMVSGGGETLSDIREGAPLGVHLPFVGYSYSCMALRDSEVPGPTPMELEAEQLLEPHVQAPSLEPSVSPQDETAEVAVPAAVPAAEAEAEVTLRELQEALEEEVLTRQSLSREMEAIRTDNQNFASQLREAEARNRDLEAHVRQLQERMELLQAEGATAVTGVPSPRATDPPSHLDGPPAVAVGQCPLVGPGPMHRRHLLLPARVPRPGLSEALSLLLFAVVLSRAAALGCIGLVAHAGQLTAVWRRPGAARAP
Chain of Mitogen-activated protein kinase 10 (Homo sapiens) (P53779 whole entry): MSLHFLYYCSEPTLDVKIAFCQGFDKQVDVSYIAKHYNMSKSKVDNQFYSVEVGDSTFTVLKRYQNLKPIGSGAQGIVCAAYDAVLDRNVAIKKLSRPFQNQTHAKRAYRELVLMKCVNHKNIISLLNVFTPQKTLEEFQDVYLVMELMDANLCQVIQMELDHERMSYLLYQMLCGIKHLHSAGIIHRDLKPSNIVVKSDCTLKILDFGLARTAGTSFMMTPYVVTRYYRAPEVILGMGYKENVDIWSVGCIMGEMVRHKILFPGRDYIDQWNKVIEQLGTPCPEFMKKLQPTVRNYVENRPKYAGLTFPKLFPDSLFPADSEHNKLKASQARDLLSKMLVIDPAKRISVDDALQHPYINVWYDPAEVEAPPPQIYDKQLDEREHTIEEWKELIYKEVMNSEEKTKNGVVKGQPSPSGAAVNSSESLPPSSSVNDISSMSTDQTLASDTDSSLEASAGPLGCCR
Chain of Phosphorylase b kinase gamma catalytic chain, liver/testis isoform (Homo sapiens) (P15735 whole entry, canonical isoform): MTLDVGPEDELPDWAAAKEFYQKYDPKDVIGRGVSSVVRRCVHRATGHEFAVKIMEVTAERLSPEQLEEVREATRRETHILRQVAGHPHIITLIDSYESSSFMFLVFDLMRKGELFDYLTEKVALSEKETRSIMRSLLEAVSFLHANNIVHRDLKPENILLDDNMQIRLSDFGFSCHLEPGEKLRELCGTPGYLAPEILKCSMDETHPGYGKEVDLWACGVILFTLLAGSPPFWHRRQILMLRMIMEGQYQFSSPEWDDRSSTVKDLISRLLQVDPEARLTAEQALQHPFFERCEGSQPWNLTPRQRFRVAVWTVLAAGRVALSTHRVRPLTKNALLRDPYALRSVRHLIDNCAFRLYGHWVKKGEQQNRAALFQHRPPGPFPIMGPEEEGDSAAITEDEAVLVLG
Chain of Phosphatidylinositol 3-kinase C2 domain-containing subunit gamma (Homo sapiens) (O75747 whole entry, the tested form may be a part): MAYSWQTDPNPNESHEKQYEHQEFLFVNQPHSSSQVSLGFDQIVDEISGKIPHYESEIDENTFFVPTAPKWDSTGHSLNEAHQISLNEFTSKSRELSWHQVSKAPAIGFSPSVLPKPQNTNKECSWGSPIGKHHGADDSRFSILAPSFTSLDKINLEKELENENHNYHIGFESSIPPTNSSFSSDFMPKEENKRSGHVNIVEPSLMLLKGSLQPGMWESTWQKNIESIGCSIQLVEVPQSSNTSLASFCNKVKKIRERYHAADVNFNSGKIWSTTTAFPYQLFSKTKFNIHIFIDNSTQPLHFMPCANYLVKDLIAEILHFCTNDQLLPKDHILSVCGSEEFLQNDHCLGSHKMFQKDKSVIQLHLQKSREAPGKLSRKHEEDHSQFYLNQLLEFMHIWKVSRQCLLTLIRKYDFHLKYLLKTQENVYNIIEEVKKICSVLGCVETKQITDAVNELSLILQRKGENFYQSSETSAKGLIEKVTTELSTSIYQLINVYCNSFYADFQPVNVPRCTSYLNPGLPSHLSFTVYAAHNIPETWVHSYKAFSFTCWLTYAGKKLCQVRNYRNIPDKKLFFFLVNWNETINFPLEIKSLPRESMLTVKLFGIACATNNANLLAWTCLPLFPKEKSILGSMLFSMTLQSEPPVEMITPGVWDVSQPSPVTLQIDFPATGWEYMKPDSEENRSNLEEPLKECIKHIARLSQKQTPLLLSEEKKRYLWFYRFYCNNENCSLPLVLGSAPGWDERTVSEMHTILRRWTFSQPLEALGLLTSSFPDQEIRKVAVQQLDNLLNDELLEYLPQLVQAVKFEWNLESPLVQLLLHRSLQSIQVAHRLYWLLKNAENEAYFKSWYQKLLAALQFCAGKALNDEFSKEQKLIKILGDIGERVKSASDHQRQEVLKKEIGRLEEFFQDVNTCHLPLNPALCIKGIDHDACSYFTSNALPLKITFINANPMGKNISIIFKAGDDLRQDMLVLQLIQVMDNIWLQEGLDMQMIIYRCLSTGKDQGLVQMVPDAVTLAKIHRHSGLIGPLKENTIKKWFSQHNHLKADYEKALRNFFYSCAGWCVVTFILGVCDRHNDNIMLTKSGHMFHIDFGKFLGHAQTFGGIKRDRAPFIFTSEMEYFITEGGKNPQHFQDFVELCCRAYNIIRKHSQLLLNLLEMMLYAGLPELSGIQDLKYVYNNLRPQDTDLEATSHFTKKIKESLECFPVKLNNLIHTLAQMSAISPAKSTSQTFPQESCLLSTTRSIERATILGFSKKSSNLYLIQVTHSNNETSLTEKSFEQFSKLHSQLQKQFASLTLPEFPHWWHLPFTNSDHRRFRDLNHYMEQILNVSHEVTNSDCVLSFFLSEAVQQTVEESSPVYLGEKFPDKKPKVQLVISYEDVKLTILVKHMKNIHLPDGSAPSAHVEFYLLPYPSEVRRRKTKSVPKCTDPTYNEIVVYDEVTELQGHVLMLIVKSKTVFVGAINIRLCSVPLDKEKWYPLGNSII
Chain of Interleukin-1 receptor-associated kinase 1 (P51617 whole entry, looked up, canonical isoform): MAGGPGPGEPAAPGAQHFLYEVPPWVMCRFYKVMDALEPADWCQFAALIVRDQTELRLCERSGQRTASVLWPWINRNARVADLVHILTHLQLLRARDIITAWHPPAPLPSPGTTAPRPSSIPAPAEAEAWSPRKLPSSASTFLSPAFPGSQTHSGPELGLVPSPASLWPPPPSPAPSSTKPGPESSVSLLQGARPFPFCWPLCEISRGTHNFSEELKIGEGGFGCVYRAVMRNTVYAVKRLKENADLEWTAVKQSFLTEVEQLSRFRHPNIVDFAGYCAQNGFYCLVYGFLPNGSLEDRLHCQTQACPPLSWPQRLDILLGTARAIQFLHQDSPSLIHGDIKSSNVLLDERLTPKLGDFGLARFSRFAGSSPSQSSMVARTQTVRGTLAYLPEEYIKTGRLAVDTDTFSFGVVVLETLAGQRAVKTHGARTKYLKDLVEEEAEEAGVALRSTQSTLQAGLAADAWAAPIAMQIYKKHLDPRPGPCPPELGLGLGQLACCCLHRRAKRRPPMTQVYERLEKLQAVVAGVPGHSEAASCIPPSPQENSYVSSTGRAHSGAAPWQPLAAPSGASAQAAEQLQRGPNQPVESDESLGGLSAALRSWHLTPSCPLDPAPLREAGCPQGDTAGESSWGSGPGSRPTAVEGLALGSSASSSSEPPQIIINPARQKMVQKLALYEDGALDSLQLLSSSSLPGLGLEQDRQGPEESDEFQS
Chain of Casein kinase II subunit alpha (Homo sapiens) (P68400 whole entry, looked up): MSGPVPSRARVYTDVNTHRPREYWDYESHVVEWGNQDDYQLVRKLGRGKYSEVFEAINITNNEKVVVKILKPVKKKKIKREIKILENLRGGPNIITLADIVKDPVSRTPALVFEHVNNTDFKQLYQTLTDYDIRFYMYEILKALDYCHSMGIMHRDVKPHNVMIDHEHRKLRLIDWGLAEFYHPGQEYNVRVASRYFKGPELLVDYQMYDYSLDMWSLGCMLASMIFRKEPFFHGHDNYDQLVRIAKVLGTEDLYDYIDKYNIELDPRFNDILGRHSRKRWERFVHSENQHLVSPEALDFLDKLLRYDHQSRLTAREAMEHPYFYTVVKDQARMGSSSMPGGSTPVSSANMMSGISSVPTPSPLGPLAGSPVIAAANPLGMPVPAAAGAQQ

inhibition [1]: 91.8%
inhibition [2]: 87%
inhibition [4]: 92%
clearance [5]: 15.8 mL/min/kg
IC50 (COLO 205): 280 nM
half-life [9]: 3.58 h
inhibition [10]: 75%
Kd [11]: 0.15 nM
Kd [13]: 11 nM
inhibition [14]: 81%
inhibition [17]: 94.4%
half-life [19]: 6.01 h
inhibition [21]: 69%
inhibition [22]: 87%
inhibition [25]: 87%
inhibition [26]: 86%
Structure (SMILES): COc1cc(N2CCN(C)CC2)ccc1Nc1ncc2c(C)cc(=O)n([C@H]3CC[C@@H](NC(=O)C4CCCCC4)CC3)c2n1
Activity (HCT-116 [3]): 3.44%
Activity (HCT-116 [6]): 13.81%
inhibition in vivo at 50 mg/kg (HCT-116 [7]): 29%
Activity (HCT-116 [8]): 21.18%
viability at 1 µM (HCT-116 [12]): 56.6%
Activity [15]: < 15%
inhibition [16]: 85%
Activity (HCT-116 [18]): 4.46%
viability at 0.3333 µM (HCT-116 [20]): 70.7%
Activity (HCT-116 [23]): 13.5%
Activity (HCT-116 [24]): 2.04%
viability at 0.1111 µM (HCT-116 [27]): 89.5%
